Test results published in patent publication US20260115280A1, “VACCINES” (ADJUVANCE TECHNOLOGIES, INC., priority 2021, published 2026).

What was measured:
gE [1] = assay: Anti-gE ELISA, D28 IgG2a subclass endpoint titers (Example 5); format: in vivo, Varicella zoster virus; details: CD-1 mice; with 5 mcg gE + 40 mcg TQL-1055; EcML statement at the low TLR4a dose
Source text: (§1) The tolerability and immunogenicity of formulations containing (TQL-1055 free acid HP-β-CD (2-hydroxypropyl beta-cyclodextrin) and TLR4 agonist candidates were studied. CD-1 mice were immunized as shown in the table below. PHAD liposomes were obtained from Avanti. EcML was obtained from EuBiologics. CRX-527 was obtained from InvivoGen. TLR4a-1 is an undisclosed TLR4 compound. AS01 is a combination of 5 mcg QS-21 and 5 mcg MPL used in SHINGRIX.
(§2) Mice were immunized via I.M. on Day 0 and Day 14. Groups were bled at Day-1, Day 13 (post Dose 1), and Day 28 (post Dose 2) for serum analysis for anti-gE specific antibody response and anti-gE specific T cell response. Weight measurements were also obtained on Days 0, 1, 2, 14, 15, 16, and 17.
Similar responses were observed from all 4 TLR4 agonists with CRX-527 having the lowest IgG2a titers. There was a more pronounced dose effect of TLR4a on IgG2a than total IgG. PHAD had the largest difference between low and high dose at 8 times higher. At the low TLR4a dose, EcML had the highest IgG2a.

CD4+ T cells [2] = assay: D26 CD4 T-cell ICS (Example 5); format: in vivo; details: CD-1 mice, high dose PHAD, high dose CRX-527, low dose TLR4a-1 (each with gE + 40 mcg TQL-1055)
Source text: as §1
(§3) Mice were immunized via I.M. on Day 0 and Day 14. […] Weight measurements were also obtained on Days 0, 1, 2, 14, 15, 16, and 17.
The increases were driven largely by higher single cytokine positive T cells for IFN-γ or IL-2.

gE [3] = assay: Anti-gE ELISA, D28 total IgG endpoint titers (Example 5); format: in vivo, Varicella zoster virus; details: CD-1 mice; high vs low TLR4 agonist dose with 5 mcg gE + 40 mcg TQL-1055 FA HPβCD
Source text: as §1, §2

CD8 T cells = assay: D26 CD8 T-cell ICS (Example 5); format: in vivo; details: CD-1 mice; high dose PHAD, both doses CRX-527, high dose TLR4a-1 (each with gE + 40 mcg TQL-1055); AS01
Source text: as §1, §3

CD4+ T cells [4] = assay: D42 CD4 T-cell ICS (Example 5); format: in vivo; details: CD-1 mice; AS01; both PHAD doses, high dose TLR4a-1, high dose CRX-527 (each with gE + 40 mcg TQL-1055)
Source text: as §1, §2
Overall, levels of activation much lower than D26 T cell data.

[5] = Weight loss: mean percent initial weight change after immunization (Example 6); format: in vivo, C57BL/6J mice; details: mice; TQL 1055 alone with gE
Protocol: as §1
The study was conducted in two parts with staggered start dates. Part A involved testing TQL1055 in combination with PHAD and EcML. Part B involved testing TQL1055 in combination with CRX-527 and TR4a-1.
Mice were immunized via I.M. on Day 0 and Day 14. Groups were bled at Day-1, Day 13 (post Dose 1), and Day 28 (post Dose 2) for serum analysis for anti-gE specific antibody response. Weight measurements were also obtained on Days 0, 1, 2, 14, 15, 16, and 17.
Post dose 1 mean percent (%) initial weight change for each group is depicted in FIGS. 40-45. Post dose 1 weight loss heatmaps are depicted in FIG. 46. Post dose 2 mean percent (%) initial weight change for each group is depicted in FIGS. 47-51. […] Weight loss appeared to be driven mostly by TLR4 dose.

CD4+ T cells [6] = assay: T-cell intracellular cytokine staining (ICS) assay, CD4+ T-cell (Example 4); format: in vivo; details: mice
Protocol: (§4) The impact of TQL-1055 choline salt (in situ salt) at various dosages, a TLR9 or TLR4 agonist, and VZV gE (expressed by CHO cells), as compared to AS-01B (5 mcg MPL+5 mcg QS-21) was tested. In Experiment #1, mice were immunized with PBS alone, gE (5 mcg)+TLR9 ligand (50 mcg)+TQL-1055 (four groups: 5 mcg, 15 mcg, 25 mcg, 50 mcg), and AS-01B. In Experiment #2, mice were immunized with PBS alone, gE (5 mcg)+TLR4 ligand (5 mcg)+TQL-1055 (four groups: 5 mcg, 15 mcg, 25 mcg, 50 mcg), and AS-01B.
(§5) Mice were immunized at Day 0 and Day 21. Groups were bled at Day 31 […] for serum analysis.
FIG. 22 is a graph depicting the results of a T-cell intracellular cytokine staining (ICS) assay (CD4+ T-cell) showing the percentage of CD4+ T cells expressing one or more cytokines in response to stimulation with VZV gE for Experiment 1. FIG. 23 is a graph depicting the results of T-cell intracellular cytokine staining (ICS) assays (CD4+ T-cell) showing the percentage of CD4+ T cells expressing one or more cytokines in response to stimulation with VZV gE for Experiment 2.

VZV gE = assay: ELISA antibody titers (Example 4); format: in vivo, Varicella zoster virus; details: mice
Protocol: as §4, §5
FIG. 26 is a graph depicting the results of an enzyme-linked immunosorbent assay (ELISA) showing antibody titers for […]. FIG. 27 is a graph depicting the results of an enzyme-linked immunosorbent assay (ELISA) showing antibody titers for Experiment 1.

spleen lymphocytes = assay: FluoroSpot (T-cell) assay, spot forming cells per million spleen lymphocytes (Example 4); format: in vivo; details: mice
Protocol: as §4, §5
FIG. 24 is a graph depicting the results of a FluroSpot (T-cell) assay showing spot forming cells per million spleen lymphocytes for Experiment 1. FIG. 25 is a graph depicting the results of a FluroSpot (T-cell) assay showing spot forming cells per million spleen lymphocytes for Experiment 2.

[7] = gE 5 mcg + TLR9 ligand 50 mcg or TLR4 ligand 5 mcg + TQL-1055 5, 15, 25, 50 mcg
[8] = TQL-1055 5 mcg combined with TLR4 ligand vs AS-01B

Structure (SMILES)	rank of IgG2a titers among the 4 TLR4 agonists (gE [1])	D26 total cytokine+ CD4+ T cells compared to unadjuvanted (CD4+ T cells [2]; AS01)	D26 total polyfunctional CD4+ T cells compared to unadjuvanted control (CD4+ T cells [2])	effect of increasing the TLR4 agonist dose on D28 total IgG endpoint titers (gE [3])	D26 activated CD8 T cells compared to unadjuvanted control group (CD8 T cells)	D42 total cytokine+ CD4+ T cells compared to unadjuvanted (CD4+ T cells [4])	weight loss compared to unadjuvanted [5]	T-cell response by ICS compared to AS-01B (CD4+ T cells [6]; TQL-1055 5 mcg combined with TLR4 ligand vs AS-01B (5 mcg MPL + 5 mcg QS-21))	T-cell response by ICS (CD4+ T cells expressing one or more cytokines on stimulation with VZV gE): dose dependence (CD4+ T cells [6]; [7])	antibody response by ELISA compared to AS-01B (VZV gE; [8])	antibody response by ELISA: dose dependence (VZV gE; [7])	T-cell response by FluoroSpot compared to AS-01B (spleen lymphocytes; [8])	T-cell response by FluoroSpot: dose dependence (spleen lymphocytes; [7])
CCCCCCCCCCC[C@H](CC(=O)N[C@H]1[C@H](OC[C@H](NC(=O)C[C@@H](CCCCCCCCCCC)OC(=O)CCCCCCCCC)C(=O)O)O[C@H](CO)[C@@H](OP(=O)(O)O)[C@@H]1OC(=O)C[C@@H](CCCCCCCCCCC)OC(=O)CCCCCCCCC)OC(=O)CCCCCCCCC [CRX-527]	lowest	significantly increased	significantly higher	no effect	significantly higher	significantly increased	–	–	–	–	–	–	–
CC1O[C@@H](OC2C(O)[C@@H](NC(=O)CCCCCCCCCCC(=O)O)C(CO)O[C@H]2OC(=O)[C@]23CCC(C)(C)CC2C2=CCC4C5(C)CC[C@H](O)C(C)(C=O)C5CCC4(C)C2(C)CC3O)C(O)C(O)[C@H]1O[C@@H]1OC[C@@H](O)C(O)C1O (stereo partly shown) [TQL-1055]	–	–	–	–	–	–	no significant weight loss	without any significant difference	dose-dependent	without any significant difference	dose-dependent	without any significant difference	dose-dependent
